{"source": "patent US8563053B2", "about": "“Compositions and methods of natural products in nanoformulations for the prevention and treatment of osteoporosis” (priority 2009, dated 2013)", "key": {"postmenopausal women": {"tested_on": "postmenopausal women", "experiment": "Postmenopausal women with high versus low dietary intake / serum lycopene: oxidative stress and bone markers", "format": "in vivo, human", "details": "women with higher serum lycopene", "excerpt": "Work of the inventors of the present invention, both experimental work and work with humans, provides evidence for a positive effect of the potent antioxidant “Lycopene” on bone health."}, "[1]": {"tested_on": "healthy postmenopausal women", "experiment": "Supplementation of healthy postmenopausal women with lycopene: oxidative stress and bone turnover markers", "format": "in vivo, human", "details": "30 mg/day for 6 months"}}}
{"smiles": "CC(C)=CCC/C(C)=C/C=C/C(C)=C/C=C/C(C)=C/C=C/C=C(C)/C=C/C=C(C)/C=C/C=C(\\C)CCC=C(C)C", "note": "[lycopene]", "values": [{"measurement": "bone formation markers (s-Osteocalcin and bone-specific ALP)", "setting": "postmenopausal women", "result": "improve"}, {"measurement": "bone resorption markers (u-NTX, s-CTX)", "setting": "postmenopausal women", "result": "improve"}, {"measurement": "oxidative stress (lipid and protein oxidation, catalase and superoxide dismutase activities)", "setting": "postmenopausal women", "result": "reduced oxidative stress"}, {"measurement": "s-BALP", "setting": "[1]; bone formation marker", "result": "increases"}, {"measurement": "s-OC", "setting": "[1]; bone formation marker", "result": "increases"}, {"measurement": "s-CTX", "setting": "[1]; bone resorption marker", "result": "significant decreases"}, {"measurement": "u-NTX", "setting": "[1]; bone resorption marker", "result": "significant decreases"}, {"measurement": "bone turnover markers", "setting": "[1]; healthy postmenopausal women", "result": "significantly improved"}, {"measurement": "oxidative stress", "setting": "[1]; healthy postmenopausal women", "result": "significantly improved"}]}
